# Key:
# P. aeruginosa 33b (PDR) = test: Antibacterial MIC/MBC (broth microdilution); type: cell-based, Pseudomonas aeruginosa; settings: Pseudomonas aeruginosa, P. aeruginosa 33b (PDR); for MBC: read-out: MBC; for MIC: read-out: MIC
# Source text: (§1) Twelve reference bacterial strains and nine MDR clinically relevant bacterial strains were used in this study. Gram-negative bacteria comprised reference strains E. coli ATCC 25922, K. pneumoniae ATCC 13883, Salmonella enterica serovar Typhimurium CECT 443, P. aeruginosa ATCC 27853, A. baumannii ATCC 19606, C. jejuni ATCC 33560 (ATCC—American Type Culture Collection; CECT—Colección Espanola de Cultivos Tipo); clinical isolates E. coli SA/2, an extended-spectrum β-lactamase (ESBL)-producing strain and P. aeruginosa 33b, a pan-drug-resistant isolate; and animal isolates C. jejuni P5/4, a ciprofloxacin-resistant strain, C. jejuni 4432, C. jejuni 4433, C. jejuni 4448, and E. coli 2252, a COL-resistant strain [42]. Gram-positive strains included S. aureus ATCC 29213, E. faecalis ATCC 29212, S. pyogenes ATCC 19615, and environmental isolates methicillin-resistant S. aureus (MRSA) 66/1 [43], and VAN-resistant enterococci (VRE) E. faecalis B3/101 [44]. Gram-negative fish pathogens Yersinia ruckeri ATCC 29473, Listonella anguillarum ATCC 1924, and Tenacibaculum maritimum ATCC 43397 were also included.
# (§2) Strains were kept in Trypto-Casein Soy agar (TSA—Biokar Diagnostics, Allone, Beauvais, France) slants and, before each assay, were sub-cultured in Mueller-Hinton agar (MHA—Biokar Diagnostics, Allone, Beauvais, France). Y. ruckeri ATCC 29473 and L. anguillarum ATCC 1924 were kept in Nutrient Agar (Condalab, Madrid, Spain) and T. maritimum ATCC 43397 was kept in TMM agar (Condalab, Madrid, Spain), and were sub-cultured in the respective culture media before each assay. For S. pyogenes ATCC 19615, CAMHB was supplemented with 3.75% lysed horse blood (LBH—Oxoid, Basingstoke, England), whereas for C. jejuni it was supplemented with 2.5% LHB. Colony-forming unit counts of the inoculum were conducted to determine the initial inoculum size (which should be approximately 5×10^5 CFU/mL). Sterility and growth controls were included in each assay. The 96-well U-shaped untreated polystyrene microtiter plates were incubated for 20 h at 37 degrees C. (42 degrees C. for C. jejuni, in a microaerophilic atmosphere) and the minimal inhibitory concentration (MIC) was determined as the lowest concentration of compound that prevented visible growth. The minimal bactericidal concentration (MBC) was determined by spreading 100 μL of the content of the wells with no visible growth on MH plates. The MBC was determined as the lowest concentration of compound that killed 99.9% of the initial inoculum after overnight incubation at 37 degrees C. Two independent assays were performed for reference and MDR strains.
# (§3) An initial screening of the antibacterial activity of the compounds was performed by the Kirby-Bauer disk diffusion method, as recommended by the Clinical and Laboratory Standards Institute (CLSI). Briefly, sterile 6 mm blank paper disks (Oxoid, Basingstoke, England) impregnated with 15 μg of each compound were placed on inoculated MH agar plates. A blank disk with dimethylsulfoxide (DMSO) was used as a negative control. MH inoculated plates were incubated for 18-20 h at 37 degrees C. At the end of incubation, the inhibition halos where measured. The MIC was used to determine the antibacterial activity of each compound, in accordance with the recommendations of the CLSI. Two-fold serial dilutions of the compounds were prepared in Mueller-Hinton Broth 2 (MHB2—Sigma-Aldrich, St. Louis, MO, USA) within the concentration range of 0.062-64 μg/mL. CTX ranging between 0.031-16 μg/mL was used as a control. Sterility and growth controls were included in each assay. Purity checks and colony counts of the inoculum suspensions were also performed in order to ensure that the final inoculum density closely approximates the intended number (5×10^5 CFU/mL). The MIC was determined as the lowest concentration of compound that inhibited growth of the bacteria. The MBC was assessed by spreading 10 μL of culture collected from wells showing no visible growth on MH agar plates. […]
# [1] = tested on: Acinetobacter baumannii ATCC 19606; test: Antibacterial MIC/MBC (broth microdilution); type: cell-based; settings: for MBC / MIC: ATCC19606, Acinetobacter baumannii ATCC 19606; for MBC: read-out: MBC; for MIC: read-out: MIC
# Procedure, shortened: (§4)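 Two-fold serial dilutions in Mueller-Hinton broth 2 (0.062-64 μg/mL), inoculum about 5×10^5 CFU/mL, 20 h at 37 degrees C. MIC was the lowest concentration preventing visible growth; MBC was the lowest concentration killing 99.9% of the inoculum after plating wells without growth on MH agar.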
# [2] = tested on: Campylobacter jejuni ATCC 33560; test: Antibacterial MIC/MBC (broth microdilution); type: cell-based; settings: ATCC33560, Campylobacter jejuni ATCC 33560; for MBC: read-out: MBC; for MIC: read-out: MIC
# [3] = tested on: Escherichia coli ATCC 25922; test: Antibacterial MIC/MBC (broth microdilution); type: cell-based; settings: ATCC25922, Escherichia coli ATCC 25922; for MBC: read-out: MBC; for MIC: read-out: MIC
# Procedure, shortened: as §4
# [4] = tested on: Klebsiella pneumoniae ATCC 13883; test: Antibacterial MIC/MBC (broth microdilution); type: cell-based; settings: ATCC13883, Klebsiella pneumoniae ATCC 13883; for MBC: read-out: MBC; for MIC: read-out: MIC
# Procedure, shortened: as §4
# [5] = tested on: Listonella anguilarum ATCC 1924; test: Antibacterial MIC/MBC (broth microdilution); type: cell-based; settings: for MBC / MIC: Listonella anguilarum ATCC 1924; for MBC: read-out: MBC; for MIC: read-out: MIC
# Procedure, shortened: as §4
# [6] = tested on: Pseudomonas aeruginosa ATCC 27853; test: Antibacterial MIC/MBC (broth microdilution); type: cell-based; settings: ATCC27853, Pseudomonas aeruginosa ATCC 27853; for MBC: read-out: MBC; for MIC: read-out: MIC
# Procedure, shortened: as §4
# [7] = tested on: Salmonella enterica serovar Typhimurium CECT 443; test: Antibacterial MIC/MBC (broth microdilution); type: cell-based; settings: for MBC: read-out: MBC; for MIC: read-out: MIC
# Procedure, shortened: as §4
# [8] = tested on: Staphylococcus aureus ATCC 29213; test: Antibacterial MIC/MBC (broth microdilution); type: cell-based; settings: for MBC: ATCC29213, read-out: MBC; for MIC: ATCC29213, read-out: MIC
# Procedure, shortened: as §4
# [9] = tested on: Yersinia ruckeri ATCC 29473; test: Antibacterial MIC/MBC (broth microdilution); type: cell-based; settings: for MBC: ATCC29473, read-out: MBC; for MIC: ATCC29473, read-out: MIC
# Procedure, shortened: as §4
# [10] = tested on: Tenacibaculum maritimum ATCC 43397; test: Antibacterial disk diffusion; type: cell-based; settings: Tenacibaculum maritimum ATCC 43397, footnote *
# Source text: as §1, §2, §3
# S. aureus 66/1 (MRSA) = test: Antibacterial MIC/MBC (broth microdilution); type: cell-based, Staphylococcus aureus; settings: Staphylococcus aureus; for MBC: read-out: MBC; for MIC: read-out: MIC
# Source text: as §1, §2, §3
# E. faecalis B3/101 (VRE) = test: Antibacterial MIC/MBC (broth microdilution); type: cell-based, Enterococcus faecalis; settings: Enterococcus faecalis, E. faecalis B3/101 (VRE); for MBC: read-out: MBC; for MIC: read-out: MIC
# Source text: as §1, §2, §3
# [11] = tested on: Enterococcuss faecalis ATCC 29212; test: Antibacterial MIC/MBC (broth microdilution); type: cell-based, Enterococcus faecalis; settings: for MBC / MIC: Enterococcus faecalis, ATCC29212, Enterococcuss faecalis ATCC 29212; for MBC: read-out: MBC; for MIC: read-out: MIC
# Source text: as §1, §2, §3
# [12] = tested on: Streptococcuss pyogenes ATCC 19615; test: Antibacterial MIC/MBC (broth microdilution); type: cell-based, Streptococcus pyogenes; settings: Streptococcus pyogenes, ATCC19615, Streptococcuss pyogenes ATCC 19615; for MBC: read-out: MBC; for MIC: read-out: MIC
# Source text: as §1, §2, §3
SMILES,MBC (P. aeruginosa 33b (PDR)) [µg/mL],MIC (P. aeruginosa 33b (PDR)) [µg/mL],MBC [1] [µg/mL],MIC [1] [µg/mL],MBC [2] [µg/mL],MIC [2] [µg/mL],MBC [3] [µg/mL],MIC [3] [µg/mL],MBC [4] [µg/mL],MIC [4] [µg/mL],MBC [5] [µg/mL],MIC [5] [µg/mL],MBC [6] [µg/mL],MIC [6] [µg/mL],MBC [7] [µg/mL],MIC [7] [µg/mL],MBC [8] [µg/mL],MIC [8] [µg/mL],MBC [9] [µg/mL],MIC [9] [µg/mL],further results
"C[C@H](CCC(=O)NCCNc1ccccc1)[C@H]1CC[C@H]2[C@@H]3CC[C@@H]4C[C@H](O)CC[C@]4(C)[C@H]3C[C@H](O)[C@]12C [Compound 8, (R)-4-((3R,5R,8R,9S,10S,12S,13R,14S,17R)-3,12-dihydroxy-10,13-dimethylhexadecahydro-1H-cyclopenta[a]phenanthren-17-yl)-N-(2-(phenylamino)ethyl)pentanamide]",> 64,> 64,> 64,> 64,> 64,> 64,> 64,> 64,> 64,> 64,> 64,> 64,> 64,> 64,> 64,> 64,> 64,16,> 64,> 64,Inhibition zone diameter (disk diffusion) [10]: 12 mm; MBC (S. aureus 66/1 (MRSA)): > 64 µg/mL; MIC (S. aureus 66/1 (MRSA)): > 64 µg/mL; MBC (E. faecalis B3/101 (VRE)): > 64 µg/mL; MIC (E. faecalis B3/101 (VRE)): > 64 µg/mL; MBC [11]: > 64 µg/mL; MIC [11]: > 64 µg/mL; MBC [12]: > 64 µg/mL; MIC [12]: > 64 µg/mL
"C[C@H](CCC(=O)N1CCOCC1)[C@H]1CC[C@H]2[C@@H]3CC[C@@H]4C[C@H](O)CC[C@]4(C)[C@H]3C[C@H](O)[C@]12C [Compound 3, (R)-4-((3R,5R,8R,9S,10S,12S,13R,14S,17R)-3,12-dihydroxy-10,13-dimethylhexadecahydro-1H-cyclopenta[a]phenanthren-17-yl)-1-morpholinopentan-1-one]",> 64,> 64,> 64,> 64,> 64,> 64,> 64,> 64,> 64,> 64,> 64,> 64,> 64,> 64,> 64,> 64,> 64,> 64,> 64,> 64,Inhibition zone diameter (disk diffusion) [10]: 10 mm; MBC (S. aureus 66/1 (MRSA)): > 64 µg/mL; MIC (S. aureus 66/1 (MRSA)): > 64 µg/mL; MBC (E. faecalis B3/101 (VRE)): > 64 µg/mL; MIC (E. faecalis B3/101 (VRE)): > 64 µg/mL; MBC [11]: > 64 µg/mL; MIC [11]: > 64 µg/mL; MBC [12]: > 64 µg/mL; MIC [12]: > 64 µg/mL
"CCN(CC)CCNC(=O)CC[C@@H](C)[C@H]1CC[C@H]2[C@@H]3CC[C@@H]4C[C@H](O)CC[C@]4(C)[C@H]3C[C@H](O)[C@]12C [Compound 6, (R)—N-(2-(diethylamino)ethyl)-4-((3R,5R,8R,9S,10S,12S,13R,14S,17R)-3,12-dihydroxy-10,13-dimethylhexadecahydro-1H-cyclopenta[a]phenanthren-17-yl)pentanamide]",> 64,> 64,64,64,> 64,> 64,> 64,64,> 64,> 64,64,64,> 64,> 64,> 64,> 64,64,64,> 64,> 64,antibacterial activity (in words) ([1]; A. baumannii ATCC 19606): displayed an inhibitory effect; antibacterial activity (in words) ([5]; Listonella anguilarum): active; Inhibition zone diameter (disk diffusion) [10]: 10 mm; MBC (S. aureus 66/1 (MRSA)): 64 µg/mL; MIC (S. aureus 66/1 (MRSA)): 64 µg/mL; MBC (E. faecalis B3/101 (VRE)): > 64 µg/mL; MIC (E. faecalis B3/101 (VRE)): > 64 µg/mL; antibacterial activity (in words) ([11]; E. faecalis ATCC 29212): exhibited antimicrobial activity; MBC [11]: 64 µg/mL; MIC [11]: 64 µg/mL; MBC [12]: > 64 µg/mL; MIC [12]: > 64 µg/mL
